The text below walks through data of patent US10039740B2, “Therapeutic combinations of sesquiterpenes and flavonoids” (Primus Pharmaceuticals, Inc., priority 2015, dated 2018).

The test system of experiment [1] is RAW267.4 cells. The experiment can be described thus: Cell proliferation of RAW267.4 cells (cell counting). It counts as cell-based, mouse. The following applies: cultured 3 days; for proliferation of RAW267.4 cells: p<0.001 vs control; for effect on RAW267.4 cells (proliferation): 1, 10, 50, 100, and 200 μg/ml, FIG. 4, FIG. 5. How it is done: Various experiments were conducted to determine effects of various active ingredients on RAW 267.4 in vitro. RAW267.4 cells refer to a mouse macrophage that produces various inflammatory cytokines including TNF-α and IL-1β. RAW267.4 cells may be prepared as 1×10^5/ml per well. These cells were cultured using a 24-well plate in DMEM containing 10% FBS and 1% P/S for 1, 2, 3 or 7 days in a water-saturated atmosphere containing 5% CO2 and 95% air at 37° C. RAW267.4 cells were cultured DMEM containing 10% FBS and 1% P/S in the presence of β-caryophyllene [1 (5 μM), 10, 50, 100 or 200 μg/ml of medium], baicalin [1 (2.24 μM), 10, 50, 100 or 200 μg/ml of medium], (+)-catechin [1 (3.45 μM), 10, 50, 100 or 200 μg/ml of medium], curcumin [1 (2.72 μM), 10, 50, 100 or 200 μg/ml of medium], or (+)-aromatic turmerone [1 (4.62 μM), 5, 10, 25 or 50 μg/ml of medium] for 3 days. After culture, cells were detached from each culture dish and counted. After trypsinization of each culture dish using 0.2% […] plus 0.02% EDTA in Ca^2+/Mg^2+-free PBS for 2 min at 37° C., detached cells from the dish were collected after centrifugation. Cells were resuspended in PBS solution and stained with eosin. Cell numbers were counted under a microscope using a Hemocytometer plate. Each dish was counted twice, and an average of two counts was calculated. Cell number was shown as number per well of plate. Statistical significance was determined using GraphPad InStat version 3 for Windows XP (GraphPad Software Inc. La Jolla, Calif.). Multiple comparisons were performed by one-way analysis of variance (ANOVA) with Tukey-Kramer multiple comparisons post test for parametric data as indicated. P<0.05 was considered statistically significant. The cells were cultured for 3 days in the presence of one or more various compounds to determine their anti-inflammatory effects.

Experiment [2] relates to RAW267.4 cells. Description: Cell death of RAW267.4 cells (cell number after confluence). To be noted: for death of RAW267.4 cells in vitro: conclusion from the cell death experiments. It counts as cell-based, mouse. How it is done: RAW267.4 cells (1×10^5/ml per well) were cultured using a 24-well plate in DMEM containing 10% FBS and 1% P/S for 3 days until reaching confluence, and then the cells were cultured another for 2 days in the presence or absence of β-caryophyllene (1 or 10 μg/ml of medium) and/or baicalin or (+)-catechin (1 or 10 μg/ml of medium). After culture, cells were detached from each culture dish. After trypsinization of each culture dish using 0.2% […] plus 0.02% EDTA in Ca^2+/Mg^2+-free PBS for 2 min at 37° C., detached cells from the dish were collected after centrifugation. Cells were resuspended in PBS solution and stained with eosin. Cell numbers were counted under a microscope using a Hemocytometer plate. Each dish was counted twice, and an average of two counts was calculated. Cell number was shown as number per well of plate. Statistical significance was determined using GraphPad InStat version 3 for Windows XP (GraphPad Software Inc. La Jolla, Calif.). Multiple comparisons were performed by one-way analysis of variance (ANOVA) with Tukey-Kramer multiple comparisons post test for parametric data as indicated. P<0.05 was considered statistically significant.

Molecules are shown by their SMILES.

In the case of `CC(C)=CC(=O)C[C@H](C)c1ccc(C)cc1` [(+)-aromatic turmerone, reference compound], the “proliferation of RAW267.4 cells” value in experiment [1] (25 and 50 μg/ml, FIG. 3) is “significantly increased”.

For the molecule `Oc1cc(O)c2c(c1)O[C@H](c1ccc(O)c(O)c1)[C@@H](O)C2` [(+)-catechin], in experiment [1], the “effect on RAW267.4 cells (proliferation)” value is “did not result in a significant effect”. Further, the “death of RAW267.4 cells in vitro” value in experiment [2] is reported as “do not have significant effects”.

Turning to `O=C(O)[C@H]1O[C@@H](Oc2cc3oc(-c4ccccc4)cc(=O)c3c(O)c2O)[C@H](O)[C@@H](O)[C@@H]1O` [baicalin], in experiment [1], the “effect on RAW267.4 cells (proliferation)” value is “did not result in a significant effect”. Besides, in experiment [2], the “death of RAW267.4 cells in vitro” value is given as “do not have significant effects”.

Turning to `COc1cc(/C=C/C(=O)CC(=O)/C=C/c2ccc(O)c(OC)c2)ccc1O` [curcumin, reference compound], in experiment [1] (100 and 200 μg/ml, FIG. 2), the “proliferation of RAW267.4 cells” value is listed as “suppressed”.

`C=C1CC/C=C(\C)CC[C@@H]2[C@@H]1CC2(C)C` [β-caryophyllene]: the “suppressive effect on cell proliferation” value in experiment [1] (1 or 10 μg/ml of each compound, FIG. 6, 7, 8, 10) is recorded as “did not result any significant suppressive effect”. In addition, the “proliferation of RAW267.4 cells” value in experiment [1] (50, 100, and 200 μg/ml of medium, FIG. 1) is “suppressed”. For the same molecule, the “number of RAW267.4 cells (cell death)” value in experiment [2] (3 days without chemicals, then 2 days with compound(s) at about 1 or 10 μg/ml of medium, FIG. 13) was “did not induce a significant decrease”. For the same molecule, in experiment [2], the “death of RAW267.4 cells in vitro” value is recorded as “do not have significant effects”.
